Test results taken from US20260209214A1, “LSD1 MODULATORS” (RECURSION PHARMACEUTICALS, INC., priority 2022, published 2026).

molecular target: Recombinant human LSD1 (Homo sapiens, UniProt O60341); assay: LSD1 inhibition assay (HTRF LSD1 Histone H3K4 mono-demethylation assay, me1->me0); assay type: biochemical; conditions: 20 nM recombinant human LSD1, 95 nM H3K4(me1) biotinylated peptide, 15 min preincubation, 60 min at 25° C., read-out: LSD1 inhibition IC50 (nM range)
Procedure: LSD1 biochemical activity was measured using the HTRF® LSD1 Histone H3K4 mono-demethylation assay (me1->me0). Briefly, the enzymatic buffer was prepared by addition of 50 mM Tris-HCl (Sigma cat #T2663-IL), 50 mM NaCl (ThermoFisher cat #AM9759) and 0.01% Tween 20 (ThermoFisher cat #J20605.AP) in distilled water (final pH 8.5). This buffer was supplemented with 10 μM FAD (Fisher Scientific cat #11411838) and 1 mM DTT (Sigma cat #D0632). For the assay, H3K4(me1) biotinylated peptide substrate (Anaspec, cat #64355) was added to provide a final assay concentration of 95 nM. The streptavidin-XL665 (Cisbio cat #610SAXLA) and H3K4 me0-Eu(K) antibody-cryptate (Cisbio, cat #61 KAOKAD) detection reagents were mixed according to the manufacturer's instructions. Test compounds were diluted in DMSO in a series of 10 semi-log step doses; 10 nL of each compound dose were dispensed in 384 well plates. Recombinant human LSD1 was diluted into enzymatic buffer to provide a final assay concentration of 20 nM and added to the tested compounds for 15 minutes. The reaction was started by addition of the substrate and incubated at 25° C. for 60 minutes. The detection reagents were added, and the plate was incubated in the dark for 90 minutes. Fluorescence was measured on an Envision 2103 plate reader with optical setup for […] in the HTRF mode. The ratio of acceptor and donor emission signals was calculated for each well. Percent inhibition values were calculated from the HTRF ratios at different doses and fitted to a 4-parameter logistic curve to determine IC50 values. […]

IC50	Compound
100 to 1000 nM	Cc1cc(Oc2ccc(CC3CNCCO3)cc2-c2ccc(C#N)c(F)c2)ccn1 (stereo not drawn) [Example 121, 3-fluoro-2′-[(2-methylpyridin-4-yl)oxy]-5′-[(morpholin-2-yl)methyl]-[1,1′-biphenyl]-4-carbonitrile]
> 1000 nM	CN1CCN(Cc2ccc(N3CCC3)c(-c3ccc(C#N)c(F)c3)c2)CC1 [Example 296, 2'-(azetidin-1-yl)-3-fluoro-5'-[(4-methylpiperazin-1-yl)methyl]-[1,1'-biphenyl]-4-carbonitrile]
100 to 1000 nM	COCC1(O)CCCN(c2ccc(CC3CNCCO3)cc2-c2ccc(C#N)c(F)c2)CC1 (stereo not drawn) [Example 152, 3-fluoro-2′-[4-hydroxy-4-(methoxymethyl)azepan-1-yl]-5′-[(morpholin-2-yl)methyl]-[1,1′-biphenyl]-4-carbonitrile]
10 to 25 nM	N#Cc1ccc(-c2cccc(CN3C[C@@H]4C[C@@H](N)[C@H]3C4)c2-c2cncs2)cc1F [Example 237, 3'-{[(1R,4R,6R)-6-amino-2-azabicyclo[2.2.1]heptan-2-yl]methyl}-3-fluoro-2'-(1,3-thiazol-5-yl)-[1,1'-biphenyl]-4-carbonitrile]
25 to 100 nM	N#Cc1ccc(-c2cc(CC3CNCCO3)ccc2N2CCC3(CCOC3)CC2)cc1F (stereo not drawn) [Example 70, 3-fluoro-5′-[(morpholin-2-yl)methyl]-2′-{2-oxa-8-azaspiro[4.5]decan-8-yl}-[1,1′-biphenyl]-4-carbonitrile]
100 to 1000 nM	N#Cc1ccc(-c2cc(CC3CNCCO3)ccc2-c2ccc(OCC3CC3)nc2)cc1F (stereo not drawn) [Example 96, 2′-[6-(cyclopropylmethoxy)pyridin-3-yl]-3-fluoro-5′-[(morpholin-2-yl)methyl]-[1,1′-biphenyl]-4-carbonitrile]
< 10 nM	CC1(C)CN(Cc2cccc(-c3ccc(C#N)c(F)c3)c2-c2ccns2)C[C@@H]1N (single isomer, unassigned) [Example 197]
100 to 1000 nM	CN1C[C@@H]2C[C@H]1CN2Cc1cc(-c2ccc(C#N)c(F)c2)cc(N2CCCC2)c1 (stereo in doubt) [Example 300, 2-fluoro-4-[3-[[(1S,4S)-5-methyl-2,5-diazabicyclo[2.2.1]heptan-2-yl]methyl]-5-pyrrolidin-1-yl-phenyl]benzonitrile]
25 to 100 nM	COCc1ccc(-c2ccc(CC3CNCCO3)cc2-c2ccc(C#N)c(F)c2)c(F)c1 (stereo not drawn) [Example 68, 3-fluoro-2′-[2-fluoro-4-(methoxymethyl)phenyl]-5′-[(morpholin-2-yl)methyl]-[1,1′-biphenyl]-4-carbonitrile]
100 to 1000 nM	CC1(C)CNCC(Cc2ccc(N3CCC3)c(-c3ccc(C#N)c(F)c3)c2)O1 (stereo not drawn) [Example 139, 2'-(azetidin-1-yl)-5'-[(6,6-dimethylmorpholin-2-yl)methyl]-3-fluoro-[1,1'-biphenyl]-4-carbonitrile]
100 to 1000 nM	COc1ccc(-c2ccc(CC3CNCCO3)cc2-c2ccc(C#N)c(F)c2)cc1F (stereo not drawn) [Example 98, 3-fluoro-2′-(3-fluoro-4-methoxyphenyl)-5′-[(morpholin-2-yl)methyl]-[1,1′-biphenyl]-4-carbonitrile]
> 1000 nM	N#Cc1ccc(-c2cccc(CC3CNCCO3)c2-n2cccn2)cc1F (stereo not drawn) [Example 90, 2-fluoro-4-[3-(morpholin-2-ylmethyl)-2-pyrazol-1-yl-phenyl]benzonitrile]
> 1000 nM	N#Cc1ccc(-c2cc(CN3CC4(CNCCO4)C3)ccc2N2CCCC2)cc1F [Example 344, 3-fluoro-5'-({5-oxa-2,8-diazaspiro[3.5]nonan-2-yl}methyl)-2'-(pyrrolidin-1-yl)-[1,1'-biphenyl]-4-carbonitrile]

Further lines, the compound ahead of its results:

Compound	IC50
N#Cc1ccc(-c2cccc(CN3[C@@H]4CC[C@H]3[C@@H](N)C4)c2C2=CCOCC2)cc1F (racemic) [Example 249, 3'-{[(1S,2S,4R)-2-amino-7-azabicyclo[2.2.1]heptan-7-yl]methyl}-2'-(3,6-dihydro-2H-pyran-4-yl)-3-fluoro-[1,1'-biphenyl]-4-carbonitrile]	25 to 100 nM
N#Cc1ccc(-c2cc(Cl)cc(CN3[C@@H]4CC[C@H]3[C@@H](N)C4)c2-c2cncs2)cc1F (racemic) [Example 268, 3'-{[(1S,2S,4R)-2-amino-7-azabicyclo[2.2.1]heptan-7-yl]methyl}-5'-chloro-3-fluoro-2'-(1,3-thiazol-5-yl)-[1,1'-biphenyl]-4-carbonitrile]	10 to 25 nM
CN(CC1CC1)c1c(CN2[C@@H]3CC[C@H]2[C@@H](N)C3)cccc1-c1ccc(C#N)c(F)c1 (racemic) [Example 269, 3'-{[(1S,2S,4R)-2-amino-7-azabicyclo[2.2.1]heptan-7-yl]methyl}-2'-[(cyclopropylmethyl)(methyl)amino]-3-fluoro-[1,1'-biphenyl]-4-carbonitrile]	100 to 1000 nM
N#Cc1ccc(-c2cccc(CC3CNCCO3)c2-c2ccns2)cc1F (stereo not drawn) [Example 36, 3-fluoro-3′-[(morpholin-2-yl)methyl]-2′-(1,2-thiazol-5-yl)-[1,1′-biphenyl]-4-carbonitrile]	10 to 25 nM
N#Cc1ccc(-c2cc(F)cc(C[C@H]3CNCCO3)c2-c2ccns2)cc1F (single isomer, unassigned) [Example 6]	10 to 25 nM
N#Cc1ccc(-c2cccc(CN3[C@H]4CC[C@@H]3[C@H](N)C4)c2C2CC2)cc1F (single isomer, unassigned) [Example 186]	10 to 25 nM
C[C@]1(N)C[C@H]2CC[C@@H]1N2Cc1cccc(-c2ccc(C#N)c(F)c2)c1C1CC1 (racemic) [Example 229, 3'-{[(1S,2S,4R)-2-amino-2-methyl-7-azabicyclo[2.2.1]heptan-7-yl]methyl}-2'-cyclopropyl-3-fluoro-[1,1'-biphenyl]-4-carbonitrile]	25 to 100 nM
CC1CC1c1c(CN2[C@@H]3CC[C@H]2[C@@H](N)C3)cccc1-c1ccc(C#N)c(F)c1 (mixture of isomers) [Example 247, 3'-{[(1S,2S,4R)-2-amino-7-azabicyclo[2.2.1]heptan-7-yl]methyl}-3-fluoro-2'-(2-methylcyclopropyl)-[1,1'-biphenyl]-4-carbonitrile]	25 to 100 nM
N#Cc1ccc(-c2cccc(CC3CNCCO3)c2N2CC(F)C2)cc1F (stereo not drawn) [Example 40, 3-fluoro-2′-(3-fluoroazetidin-1-yl)-3′-[(morpholin-2-yl)methyl]-[1,1′-biphenyl]-4-carbonitrile]	100 to 1000 nM
Cc1cc(CN2[C@@H]3CC[C@H]2[C@@H](N)C3)c(C2CC2)c(-c2ccc(C#N)c(F)c2)c1 (racemic) [Example 304, 3'-{[(1S,2S,4R)-2-amino-7-azabicyclo[2.2.1]heptan-7-yl]methyl}-2'-cyclopropyl-3-fluoro-5'-methyl-[1,1'-biphenyl]-4-carbonitrile]	10 to 25 nM
N#Cc1ccc(-c2cccc(CN3[C@H]4CC[C@H](N)[C@@H]3CC4)c2Cl)cc1F (racemic) [Example 282, 3'-{[(1S,2S,5S)-2-amino-8-azabicyclo[3.2.1]octan-8-yl]methyl}-2'-chloro-3-fluoro-[1,1'-biphenyl]-4-carbonitrile]	100 to 1000 nM
N#Cc1ccc(-c2cccc(CN3[C@@H]4CC[C@H]3[C@@H](N)C4)c2C2CC2)cc1F (racemic) [Example 176, 3'-{[(1S,2S,4R)-2-amino-7-azabicyclo[2.2.1]heptan-7-yl]methyl}-2'-cyclopropyl-3-fluoro-[1,1'-biphenyl]-4-carbonitrile]	25 to 100 nM
Cc1cccnc1-c1ccc(CN2[C@@H]3CC[C@H]2[C@@H](N)C3)cc1-c1ccc(C#N)c(F)c1 (racemic) [Example 257, 5'-{[(1S,2S,4R)-2-amino-7-azabicyclo[2.2.1]heptan-7-yl]methyl}-3-fluoro-2'-(3-methylpyridin-2-yl)-[1,1'-biphenyl]-4-carbonitrile]	10 to 25 nM
N#Cc1ccc(-c2cccc(CN3[C@@H]4CC[C@H]3[C@@H](N)C4)c2C(F)(F)F)cc1F (racemic) [Example 200, 3'-{[(1S,2S,4R)-2-amino-7-azabicyclo[2.2.1]heptan-7-yl]methyl}-3-fluoro-2'-(trifluoromethyl)-[1,1'-biphenyl]-4-carbonitrile]	25 to 100 nM
N#Cc1ccc(-c2cccc(CN3[C@@H]4CC[C@H]3[C@@H](N)C4)c2N2CCC(F)CC2)cc1F (racemic) [Example 241, 3'-{[(1S,2S,4R)-2-amino-7-azabicyclo[2.2.1]heptan-7-yl]methyl}-3-fluoro-2'-(4-fluoropiperidin-1-yl)-[1,1'-biphenyl]-4-carbonitrile]	100 to 1000 nM
CC1(C)CN(c2ccc(CN3[C@@H]4CC[C@H]3[C@@H](N)C4)cc2-c2ccc(C#N)c(F)c2)C1 (racemic) [Example 206, 5'-{[(1S,2S,4R)-2-amino-7-azabicyclo[2.2.1]heptan-7-yl]methyl}-2'-(3,3-dimethylazetidin-1-yl)-3-fluoro-[1,1'-biphenyl]-4-carbonitrile]	10 to 25 nM
Cc1ncsc1-c1c(CC2CNCCO2)cccc1-c1ccc(C#N)c(F)c1 (stereo not drawn) [Example 24, 3-fluoro-2′-(4-methyl-1,3-thiazol-5-yl)-3′-[(morpholin-2-yl)methyl]-[1,1′-biphenyl]-4-carbonitrile]	10 to 25 nM
